From ChEMBL document CHEMBL1123054, “Synthesis and dopamine autoreceptor activity of a 5-(methylmercapto)methyl-substituted derivative of (+/-)-3-PPP (3-(3-hydroxyphenyl)-1-n-propylpiperidine)” (J Med Chem, 1985) come the findings set out here.

For experiment [1], the system named is Mus musculus. The experiment is described as follows: Dopa accumulation induced by GBL was measured in mouse after subcutaneous administration of 32 umol/kg of compound. In kind it is functional.
The species entered for experiment [2] is Rattus norvegicus. The experiment is described as follows: In vitro inhibitory activity was determined against dopamine synthesis in rat striatal synaptosomes. The conditions noted are these: Brain.
The species named for experiment [3] is Rattus norvegicus. The description is as above. Conditions: Brain. The source holds these as a separate data set.
In experiment [4] the test system is Mus musculus. The experiment is described as follows: Dose required to produce convulsions in mouse was determined after subcutaneously administration. In kind it is functional.

What is called IC50 is the concentration that gives 50% inhibition. Read a high IC50 as weaker potency in that assay. For the molecule `CCCN1CCCC(c2cccc(O)c2)C1` (stereo not given), the Accumulation in the experiment on Mus musculus [1] is 60%. This molecule showed a 50% inhibitory concentration (IC50) in the experiment filed under Rattus norvegicus [2] of 55 µM.
Turning to `CCCN1C[C@H](CSC)C[C@H](c2cccc(O)c2)C1`, the Accumulation in the experiment with Mus musculus [1] was found to be 89%. Inhibition in the experiment listed under Rattus norvegicus [3] was half-maximal at 45 µM (IC50). This molecule also showed a Dose in the experiment with Mus musculus [4] of 100 µM/kg.
